“Also recorded” adds a separate entry of the source. Read-outs that look alike come from different tables or passages of the source.
What was measured:
Huh7.5 cells = assay: Viability of treated Huh7.5 cells by MTT assay; type: cell-based; settings: 10 μM, 24 h after treatment
Procedure: Huh7.5 cells were electroporated with HCV-JC1-Luc (reporter virus expressing luciferase via IRES) RNA and treated 24 h later with the best 20 candidates (10 μM). After another 24 h the supernatants were harvested. To quantify infectious particles, untreated Huh7.5 cells were inoculated with the supernatants and 36 h later the luciferase activity was measured. The viability of the same cells was determined 24 h after treatment with inhibitor by MTT assay (tetrazolium salt which is reduced in metabolically active cells resulting in a color change). For both parameters, 100% corresponds to the release or viability of the untreated or DMSO treated control. uninf.=not infected; untr.=not treated. Mean values and SD were derived from n =3 independent infections.
The viability of the same cells was determined 24 h after treatment with the candidate substances by MTT assay (tetrazolium salt reduced in metabolically active cells resulting in a color change) (FIG. 2). For both parameters, 100% of release or viability corresponds to the untreated or DMSO-treated control.

HeLa-LC5-RIC cells = assay: Cytotoxicity in HeLa-LC5-RIC cells (Cell Titer Glo); type: cell-based
Procedure: Cell viability was measured via the presence of ATP using the Promega Cell Titer Glo kit according to the manufacturer's instructions. Luminescence was detected using the Cytation3 by Biotek. […] (B) The same set of data as shown in FIG. 4A was plotted in a line graph. […] (D) As for FIG. 4A, Huh7.5 cells (1.0×10^4 cells/well) were seeded and incubated with C10 at the indicated concentrations for the indicated time points before measurement of viability using the Promega Cell Titer Glo kit.
It is shown that compound C10 is not toxic even a high concentrations of up to 40 μM.

ChikV = assay: IC50 in established virological assays (Table 1), ChikV; type: cell-based; settings: Chikungunya virus
RSV [1] = assay: IC50 in established virological assays (Table 1), RSV; type: cell-based; settings: human respiratory syncytial virus
Procedure: In summary, a set of C10 derivatives (FIG. 12) was designed, synthesized and tested against HCV (which is considered as an established system to monitor drug effects against Flaviviridae) as well as DENV for comprehensive structure-activity relationship (SAR) analysis and target validation. IC50 and CC50 values for compound C10 were determined in established virological assays (Table 1). […] Further, said experiments underline the specificity of compound C10 for flaviviruses.

FluAV = assay: IC50 in established virological assays (Table 1), FluAV; type: cell-based; settings: Influenza A virus
RSV [2] = assay: Plaque assay, RSV infection (A549 cells lysed at 22 h); type: cell-based; settings: human respiratory syncytial virus
Procedure: Vero and BHK-21 cells were maintained in DMEM media supplemented with 10% heat-inactivated FBS at 37° C. in a humidified incubator supplemented with 5% CO2; A549 cells were maintained in F-12K medium supplemented with 10% heat-inactivated Fetal Bovine Serum (FBS), 2 mM L-glutamine, 50 U/I penicillin, 0.05 mg/l streptomycin. DENV-1-4 strains, cell culture conditions and Gen-Bank accession numbers, as well as details of RSV strains and culture are known in the art. […] Viral titer was subsequently determined by plaque assay (see below).
Vero cells were seeded into 24-well plates at a density of 2×10^5 cells/well and grown overnight in culture medium at 37° C. with 5% CO2 prior to infection with RSV, KUNV, ZIKV as indicated. BHK-21 cells were used for DENV1-4. The virus inoculum was removed and replaced with semisolid overlays of 0.8% aquacide II (Calbiochem) in DMEM+2% FBS, and the mixture was incubated at 37° C. with 5% CO2. After 3-5 days, the cells were fixed with neutral buffered formalin (Sigma) for 3 h at room temperature, rinsed with tap water, and stained with 1% crystal violet for 10 min. The stain was removed by rinsing the cells with tap water, and the viral plaques were counted visually. Dose-response curves were plotted from the plaque number versus the log of the concentration of the test compounds. […]

[3] = test system: hematopoietic stem cell formation; assay: Effect on zebrafish hematopoietic stem cell formation (in situ runx-1+c-myb); type: in vivo; settings: 36 hpf
Procedure: Zebrafish embryos were exposed 20-30 min after fertilization to differing concentrations of the compounds C10 and D1 (5 μM; 15 μM; 25 μM) or to medium containing the corresponding solvent (DMSO) concentration. Therefore, 3-5 embryos were sorted into each of three wells of a 96 well plate containing 200 μl of medium. For phenotype analysis, triplicates were imaged after 6-7 h post fertilization (hpf) at approximately shield stage, after 24 hpf and after 48 hpf. Dead +unfertilized embryos were removed. For imaging at 24 hpf +48 hpf; embryos were anesthetized using MESAB. (A) Diagramm showing the percentage of embryos at each time point either developing normal (blue color) or with the indicated phenotype. (B) representative images of embryos treated with the indicated compounds, or controls at the respective time points. (C) To additionally elucidate the influence on hematopoietic stem cell formation, approx. half of the embryos were sampled at 36 hpf and an in situ staining for runx-1+c-myb was performed. Shown are representative images of hematopoietic stem cell formation with the treatment indicated.
Embryos were exposed 20-30 min after fertilization to differing concentrations of the compounds C10 and D1 (5 μM; 15 μM; 25 μM) or to medium containing the corresponding solvent (DMSO) concentration. […]

in vitro = settings: for % Remain. Mean: mouse plasma, 1 μM, 37° C.
Procedure: Plasma stability is defined as the percentage of parent compound remaining in plasma over the time.
Incubations were carried out in 5 aliquots of 70 μL each (one for each time point), in duplicates. Test compounds (1 μM, final DMSO concentration 1%) were incubated at 37° C. with shaking at 100 rpm. Five time points over 120 minutes have been analyzed. The reactions were stopped by adding 420 μL of acetonitrile-water mixture (90:10) with subsequent plasma proteins sedimentation by centrifuging at 5500 rpm for 5 minutes. Supernatants were analyzed by the HPLC system coupled with tandem mass spectrometer. The percentage of the test compounds remaining after incubation in plasma and their half-lives (T1/2) were calculated.

HCV core protein = HCV core protein (Hepatitis C virus genotype 1a, UniProt P27958); assay: Interaction with and crosslinking of HCV core protein (Western blot); settings: purified core protein
HCV core protein, sequence (P27958 1-117): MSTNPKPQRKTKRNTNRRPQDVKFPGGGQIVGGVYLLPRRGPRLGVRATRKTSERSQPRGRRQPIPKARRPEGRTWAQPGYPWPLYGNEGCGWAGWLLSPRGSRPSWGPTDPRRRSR

CCN1/C(=C\C=C\c2sc3cc(NC(C)=O)ccc3[n+]2CC)Sc2cc(NC(C)=O)ccc21.[I-] [C10, 6-acetamido-2-((1E,3E)-3-(6-acetamido-3-ethylbenzo[d]thiazol-2(3H)-ylidene)prop-1-en-1-yl)-3-ethylbenzo[d]thiazol-3-ium iodide]
cell viability (MTT) (Huh7.5 cells): no negative effect on cell viability | cytotoxicity (HeLa-LC5-RIC cells): not toxic | IC50 (ChikV): 5.6 µM | IC50 (RSV [1]): 4.3 µM | IC50 (FluAV): ~5 µM | EC50 (RSV [2]; c.t., read-out: EC50 from plaque assays): 0.89 µM | EC50 (RSV [2]; co-added with virus (text, Tables 2A and 2B), read-out: EC50): ~0.8 µM | hematopoietic stem cell formation [3]: no difference to the WT embryos | % Remain. Mean (in vitro; 0 min): 100% | % Remain. Mean (in vitro; 20 min): 93% | % Remain. Mean (in vitro; 40 min): 90% | % Remain. Mean (in vitro; 60 min): 82% | % Remain. Mean (in vitro; 120 min): 57% | half-life at 1 μM (in vitro; mouse, plasma): 3.68 h | stability in mouse plasma (in vitro; mouse, plasma): good stability | cross-linking / oligomerization of HCV core protein (HCV core protein): leads to cross-linking of the core protein; also recorded: triggers the oligomerization of HCV core protein
